Consider 21 compounds from patent US7235585B2 (priority 2002, dated 2007).

Series [1] deals with WiDr cells (a colon carcinoma cell line) engineered for stable expression of stCPG2(Q)3. Put plainly: cells. The class given is cell-based. Particulars: for IC50: read-out: IC50 stCPG2(Q)3.
Series [2] concerns WiDr cells (a colon carcinoma cell line) engineered for stable expression of β-galactosidase (β-gal). The following applies: cited from earlier work.
The subject of series [3] is WiDr cells (a colon carcinoma cell line) engineered for stable expression of stCPG2(Q)3. Particulars: cited from earlier work.
Series [4] relates to WiDr cells (a colon carcinoma cell line) engineered for stable expression of β-galactosidase (β-gal). Put plainly: cells. The following applies: read-out: IC50 LacZ. The class given is cell-based.
For series [5] the following is noted: buffer; for T1/2 prodrug: pH 7.3.
The target of series [6] is CPG2 (Pseudomonas sp., UniProt P06621). The class given is biochemical, Pseudomonas R16.

Where two headings read alike, the source gives them in different places. Bounds are passed on as bounds.

CPG2, sequence (P06621 23-415): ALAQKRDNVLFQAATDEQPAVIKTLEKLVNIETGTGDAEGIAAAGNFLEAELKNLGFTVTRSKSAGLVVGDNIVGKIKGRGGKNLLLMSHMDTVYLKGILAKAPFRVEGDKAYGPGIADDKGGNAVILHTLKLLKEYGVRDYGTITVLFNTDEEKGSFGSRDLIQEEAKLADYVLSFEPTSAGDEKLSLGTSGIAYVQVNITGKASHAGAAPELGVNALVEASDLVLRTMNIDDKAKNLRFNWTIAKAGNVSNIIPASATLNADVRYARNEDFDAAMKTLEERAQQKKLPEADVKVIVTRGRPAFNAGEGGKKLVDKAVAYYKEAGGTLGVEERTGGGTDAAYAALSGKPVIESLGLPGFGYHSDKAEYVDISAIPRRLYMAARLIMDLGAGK

One may read the IC50 as the concentration needed to halve the response being measured. Regarding `CS(=O)(=O)OCCN(CCCl)c1ccc(C(=O)N[C@@H](CCC(=O)O)C(=O)O)cc1` [CMDA, N-{4-[(2-chloroethyl)(2-mesyloxyethyl)amino]benzoyl}-L-glutamic acid], the “Degree of activation (fold)” value in series [1] was determined as 32.3 fold. For the same compound, the IC50 is 3230 µM in series [2] and 100 µM in series [3].

Regarding `O=C(O)CCC(NC(=O)Nc1ccc(COC(=O)Nc2ccccc2N(CCI)CCI)cc1)C(=O)O` (centres unmarked) [CP-1], the IC50 in series [4] was 149 µM. Further, in series [1], the “Degree of activation (fold)” value is 49.7 fold, the “differential in the transfected WiDr cell line” value was 50 fold, the “differentials in the WiDr cell lines compared with CMDA” value (“differentials in the WiDr cell lines” below) was “better than those of CMDA” and the IC50 amounted to 3 µM. The T1/2 prodrug in series [5] is listed as 2.7 min.

On to `O=C(O)CCC(NC(=O)Nc1ccc(COC(=O)Nc2ccc(N(CCI)CCI)cc2)cc1)C(=O)O` (centres unmarked) [CP-2], for which the IC50 in series [4] was found to be 180 µM. Besides, in series [1], the “Degree of activation (fold)” value turned out to be 101.6 fold, the “differentials in the WiDr cell lines” value is reported as “better than those of CMDA” and the IC50 was determined as 1.8 µM. For the same compound, in series [5], the “T1/2 prodrug/T1/2 drug” value was determined as 1.9 and the T1/2 prodrug amounted to 0.97 min.

As to `O=C(O)CCC(NC(=O)Nc1ccc(COC(=O)Nc2ccccc2N(CCBr)CCBr)cc1)C(=O)O` (centres unmarked) [CP-3], the IC50 in series [4] is 118 µM. In series [1], the “Degree of activation (fold)” value worked out at 24.9 fold, the “differential in the transfected WiDr cell line” value was found to be 25 fold and the IC50 was determined as 4.7 µM. Further, in series [5], the “T1/2 prodrug/T1/2 drug” value is given as 3.5 and the T1/2 prodrug is given as 3.0 min.

Regarding `O=C(O)CCC(NC(=O)Nc1ccc(COC(=O)Nc2ccc(N(CCBr)CCBr)cc2)cc1)C(=O)O` (centres unmarked) [CP-4], the IC50 in series [4] is 205 µM. Besides, in series [1], the “Degree of activation (fold)” value worked out at 66.6 fold, the “differentials in the WiDr cell lines” value is given as “better than those of CMDA” and the IC50 is 3.1 µM. Further, in series [5], the “T1/2 prodrug/T1/2 drug” value was determined as 0.4 and the T1/2 prodrug is 0.85 min.

In general, kcat refers to the maximal rate divided by the concentration of active sites. For `O=C(O)CCC(NC(=O)Nc1ccc(COC(=O)Nc2ccccc2N(CCCl)CCCl)cc1)C(=O)O` (centres unmarked) [CP-5], the IC50 in series [4] is 21.1 µM. For the same compound, in series [1], the “Degree of activation (fold)” value is listed as 4.7 fold and the IC50 amounted to 4.5 µM. The kcat in series [6] amounted to 2.92 s⁻¹. Also, in series [5], the “T1/2 prodrug/T1/2 drug” value was 13.9 and the T1/2 prodrug was 107.5 min.

For `O=C(O)CCC(NC(=O)Nc1ccc(COC(=O)Nc2ccc(N(CCCl)CCCl)cc2)cc1)C(=O)O` (centres unmarked) [CP-6], in series [6], the kcat was 10 to 50 s⁻¹.

As for `CS(=O)(=O)OCCN(CCOS(C)(=O)=O)c1ccccc1NC(=O)OCc1ccc(OC(=O)NC(CCC(=O)O)C(=O)O)cc1` (centres unmarked) [CP-7], in series [4], the IC50 was found to be 208 µM. Further, in series [1], the “Degree of activation (fold)” value stood at 5.2 fold and the IC50 is 40 µM. Besides, the T1/2 prodrug in series [5] is listed as 10.8 min.

Take `O=C(O)CCC(NC(=O)Oc1ccc(COC(=O)Nc2ccccc2N(CCI)CCI)cc1)C(=O)O` (centres unmarked) [CP-8]: the IC50 in series [4] is 73.3 µM. Besides, in series [1], the “Degree of activation (fold)” value is 3.9 fold and the IC50 worked out at 19 µM. Moreover, in series [5], the T1/2 prodrug was determined as 2.1 min.

Consider `O=C(O)CCC(NC(=O)Oc1ccc(COC(=O)Nc2ccc(N(CCI)CCI)cc2)cc1)C(=O)O` (centres unmarked) [CP-9], for which, in series [4], the IC50 stood at 53.6 µM. Further, in series [1], the “Degree of activation (fold)” value is given as 42.5 fold, the “differentials in the WiDr cell lines” value is “better than those of CMDA” and the IC50 is 1.3 µM. In series [5], the “T1/2 prodrug/T1/2 drug” value is given as 2.0 and the T1/2 prodrug was found to be 0.98 min.

In the case of `O=C(O)CCC(NC(=O)Oc1ccc(COC(=O)Nc2ccccc2N(CCBr)CCBr)cc1)C(=O)O` (centres unmarked) [CP-10], the IC50 in series [4] was 183 µM. Further, in series [1], the “Degree of activation (fold)” value was found to be 1.9 fold and the IC50 was determined as 95.2 µM. For the same compound, in series [5], the “T1/2 prodrug/T1/2 drug” value was 3.5 and the T1/2 prodrug is 3.47 min.

Regarding `O=C(O)CCC(NC(=O)Oc1ccc(COC(=O)Nc2ccc(N(CCBr)CCBr)cc2)cc1)C(=O)O` (centres unmarked) [CP-11], the IC50 in series [4] is 99.7 µM. In series [1], the “Degree of activation (fold)” value came to 38.3 fold, the “differentials in the WiDr cell lines” value was “better than those of CMDA” and the IC50 is 2.6 µM. In series [5], the “T1/2 prodrug/T1/2 drug” value came to 0.4 and the T1/2 prodrug amounted to 0.9 min.

As for `O=C(O)CCC(NC(=O)Oc1ccc(COC(=O)Nc2ccccc2N(CCCl)CCCl)cc1)C(=O)O` (centres unmarked) [CP-12], the IC50 in series [4] came out at 38.1 µM. Moreover, in series [1], the “Degree of activation (fold)” value is 1.4 fold and the IC50 came to 28.1 µM. In series [6], the kcat stood at 4.27 s⁻¹. Further, in series [5], the “T1/2 prodrug/T1/2 drug” value is reported as 11.9 and the T1/2 prodrug is listed as 146.3 min.

With `O=C(O)CCC(NC(=O)Oc1ccc(COC(=O)Nc2ccc(N(CCCl)CCCl)cc2)cc1)C(=O)O` (centres unmarked) [CP-13], the kcat in series [6] is below 10 s⁻¹.

On to `CS(=O)(=O)OCCN(CCCl)c1ccccc1NC(=O)OCc1ccc(OC(=O)NC(CCC(=O)O)C(=O)O)cc1` (centres unmarked) [CP-14], for which the IC50 in series [4] was 148 µM. For the same compound, in series [1], the “Degree of activation (fold)” value amounted to 5.2 fold and the IC50 worked out at 28.5 µM. Moreover, in series [5], the T1/2 prodrug is 10.0 min.

On to `CN(C(=O)OCc1ccc(OC(=O)NC(CCC(=O)O)C(=O)O)cc1)c1ccc(N(CCI)CCI)cc1` (centres unmarked) [CP-15], for which, in series [4], the IC50 amounted to 21.5 µM. For the same compound, in series [1], the “Degree of activation (fold)” value came out at 8.3 fold and the IC50 came to 2.6 µM. In addition, in series [5], the “T1/2 prodrug/T1/2 drug” value is on record as 7.7 and the T1/2 prodrug is 4.6 min.

With `CN(C(=O)OCc1ccc(OC(=O)NC(CCC(=O)O)C(=O)O)cc1)c1ccc(N(CCBr)CCBr)cc1` (centres unmarked) [CP-16], the IC50 in series [4] was 27.2 µM. For the same compound, in series [1], the “Degree of activation (fold)” value was found to be 7.5 fold and the half-inhibitory concentration (IC50) came to 3.6 µM. Further, in series [5], the “T1/2 prodrug/T1/2 drug” value stood at 1.0 and the T1/2 prodrug came to 2.7 min.

As for `CN(C(=O)OCc1ccc(OC(=O)NC(CCC(=O)O)C(=O)O)cc1)c1ccc(N(CCCl)CCCl)cc1` (centres unmarked) [CP-17], the IC50 in series [4] came to 19.6 µM. For the same compound, in series [1], the “Degree of activation (fold)” value came out at 11.5 fold and the IC50 came to 1.7 µM. For the same compound, the kcat in series [6] was 4.32 s⁻¹. Further, in series [5], the “T1/2 prodrug/T1/2 drug” value stood at 20.6 and the T1/2 prodrug stood at 173.6 min.

As for `CN(C(=O)OCc1ccc(NC(=O)NC(CCC(=O)O)C(=O)O)cc1)c1ccc(N(CCI)CCI)cc1` [Compound P-1, 4-{N-[4′-bis(2″-iodoethyl)amino-phenyl]-N-methyl-carbamoyl-oxymethyl}-phenyl-carbamoyl-L-glutamic acid], the IC50 in series [4] (Homo sapiens, WiDr) came out at 185 µM; in series [1] (Homo sapiens, WiDr), 1.5 µM. In series [1], the “Degree of activation (fold)” value stood at 124.0 fold. The “differentials in the WiDr cell lines” value in series [1] is reported as “better than those of CMDA”. For the same compound, the “T1/2 prodrug/T1/2 drug” value in series [5] worked out at 6.5.

Consider `CN(C(=O)OCc1ccc(NC(=O)NC(CCC(=O)O)C(=O)O)cc1)c1ccc(N(CCBr)CCBr)cc1` [Compound P-2, 4-{N-[4′-bis(2″-bromoethyl)amino-phenyl]-N-methyl-carbamoyl-oxymethyl}-phenyl-carbamoyl-L-glutamic acid], for which the IC50 in series [4] (Homo sapiens, WiDr) was 332 µM; in series [1] (Homo sapiens, WiDr), 4.1 µM. Further, the “Degree of activation (fold)” value in series [1] was determined as 81.4 fold. Moreover, the “differentials in the WiDr cell lines” value in series [1] is listed as “better than those of CMDA”. Besides, the “T1/2 prodrug/T1/2 drug” value in series [5] worked out at 1.0.

Regarding `CN(C(=O)OCc1ccc(NC(=O)NC(CCC(=O)O)C(=O)O)cc1)c1ccc(N(CCCl)CCCl)cc1` [Compound P-3, 4-{N-[4′-bis(2″-chloroethyl)amino-phenyl]-N-methyl-carbamoyl-oxymethyl}-phenyl-carbamoyl-L-glutamic acid], the IC50 in series [4] (Homo sapiens, WiDr) is 39.7 µM; in series [1] (Homo sapiens, WiDr), 2.5 µM. The “Degree of activation (fold)” value in series [1] is 15.9 fold. Also, the kcat in series [6] is 5.50 s⁻¹. In addition, the “T1/2 prodrug/T1/2 drug” value in series [5] is given as 20.9.
